In patent publication US20230279002A1, “Polymorphs of Crystalline Forms of 3,10-dimethoxy-5,8,13,13a-tetrahydro-6H-isoquinolino[3,2-a]isoquinolin-9-yl 3-fluorobenzenesulfonate and Salts Thereof” (CVI Pharmaceuticals Limited, priority 2020, published 2023):
In brackets after ≈: the same amount, converted by molar mass.

Tests used:
Format in all cases: physicochemical
[1] = Apparent solubility in organic solvents (visual); settings: for solubility: thermodynamic from solid
Procedure: Solubility: 2a substance was equilibrated with organic solvents to visually test the apparent solubility. The experiment was terminated once or if the target of 20 mg/mL was achieved.

[2] = Crystallization from hot saturated solutions, solid form by XRPD; settings: for Solid form: EtOH, XRPD
Procedure: Crystallization from hot saturated solutions: About 100 mg 2a was dissolved with minimal amount of solvent at about 60° C. The solution was filtrated and separated into two portions. One portion was put in ice bath and agitated till the end of the experiment; the other portion was cooled down naturally. The precipitates were collected on a filter, dried and analyzed by XRPD.

[3] = Solvent evaporation, solid form by XRPD
Procedure: Solvent evaporation: About 20 mg 2a was dissolved in organic solvents. The solution was filtrated and dried in the air. The obtained solid part from the evaporation process was analyzed by XRPD.

[4] = Precipitation by addition of anti-solvent, solid form by XRPD
Procedure: The precipitates were collected and analyzed by XRPD.
2a was dissolved in ACN or MeOH, and water or heptane was added as anti-solvent. […] The XRPD pattern of compound 2a (bottom) and compound 2a dissolved in ACN then precipitated with heptane (top) is shown in FIG. 6. The XRPD pattern of compound 2a (bottom trace) and compound 2a dissolved in MeOH then precipitated with heptane (top trace) or water (center trace) is shown in FIG. 7.

[5] = Equilibration with solvent at 25° C. and 50° C. (slurry), solid form by XRPD
Procedure: Equilibration with solvent at 25° C. and 50° C.: About 50 mg of 2a was equilibrated with 1 ml solvents at 25° C. and 50° C. After stirring for 1 day and 7 days, the suspensions were centrifuged. The solid part was collected and analyzed by XRPD, then dried in the air for 10 min and analyzed by XRPD. After equilibrium with solvent at 25° C. and 50° C. for 1 and 7 days, the crystal form was not changed. […] The XRPD spectra of the solid equilibrated with each solvent listed in Table 12, at 25° C. and 50° C., are shown overlaid that of undisturbed 2a in FIG. 8 through FIG. 14.

With `COc1ccc2c(c1)CCN1Cc3c(ccc(OC)c3OS(=O)(=O)c3cccc(F)c3)C[C@H]21` [Compound 2a] the solubility ([1]; 50% EtOH (aq), aqueous with cosolvent or surfactant or cyclodextrin) was < 990 µg/mL, the “Solubility (mg/ml)” value ([1]; ACN) was 6.17~18.5 mg/ml and the solubility ([1]; EtOH, organic solvent or mixture) was 2100 to 3150 µg/mL (≈ 4.47 to 6.71 mM). For the same molecule, the solubility ([1]; THF, organic solvent or mixture) was < 1140 µg/mL, the solubility ([1]; acetone, organic solvent or mixture) was 2220 to 3330 µg/mL (≈ 4.73 to 7.09 mM) and the solubility ([1]; acetonitrile, organic solvent or mixture, ACN) was 6170 to 18500 µg/mL (≈ 13.1 to 39.4 mM). For the same molecule, the solubility ([1]; ethyl acetate, organic solvent or mixture) was < 1800 µg/mL, the solubility ([1]; heptane, organic solvent or mixture) was < 1430 µg/mL and the solubility ([1]; methanol, organic solvent or mixture, MeOH) was > 17000 µg/mL. For the same molecule, the solubility ([1]; water) was < 1080 µg/mL, the Solid form ([2]; quick (ice bath)) was “partially crystalline” and the Solid form ([2]; slow (cooled down naturally)) was “no crystal, failed”. For the same molecule, the “Solid form after crystallization from hot saturated solutions” value ([2]; dissolved at about 60° C., cooled) was “partially crystalline”, the “Solid form after evaporation” value ([3]; ACN) was “Amorphous” and the “Solid form after evaporation” value ([3]; Acetone) was “Amorphous”. For the same molecule, the “Solid form after evaporation” value ([3]; EtOH) was “Amorphous”, the “Solid form after evaporation” value ([3]; MeOH) was “Amorphous” and the “Crystal form after precipitation by anti-solvent” value ([4]; heptane as anti-solvent (ACN or MeOH solution)) was “not changed”. For the same molecule, the Solid form ([4]; solvent ACN, anti-solvent Heptane (6 volumes)) was “Crystal, no change”, the Solid form ([4]; solvent ACN, anti-solvent Water (6 volumes)) was “No crystal, failed” and the Solid form ([4]; solvent MeOH, anti-solvent Heptane (3 volumes)) was “Crystal, no change”. For the same molecule, the Solid form ([4]; solvent MeOH, anti-solvent Water (2 volumes)) was “Amorphous”, the “Crystal form after precipitation by anti-solvent” value ([4]; water added to MeOH solution) was “transformed to amorphous” and the “Crystal form after equilibration with solvent” value ([5]; 25° C. and 50° C., 1 and 7 days) was “not changed”. For the same molecule, the Slurry solid form ([5]; 50% EtOH (aq), 25° C.-1 day) was “Crystal, no change”, the Slurry solid form ([5]; 50% EtOH (aq), 25° C.-7 day) was “Crystal, no change” and the Slurry solid form ([5]; 50% EtOH (aq), 50° C.-1 day) was “partially crystalline”. For the same molecule, the Slurry solid form ([5]; ACN, 25° C.-1 day) was “Crystal, no change”, the Slurry solid form ([5]; ACN, 25° C.-7 day) was “Crystal, no change” and the Slurry solid form ([5]; ACN, 50° C.-1 day) was “Crystal, no change”. The Slurry solid form ([5]; Acetone, 25° C.-1 day) was “Crystal, no change”, the Slurry solid form ([5]; Acetone, 25° C.-7 day) was “Crystal, no change” and the Slurry solid form ([5]; Acetone, 50° C.-1 day) was “Crystal, no change”. The Slurry solid form ([5]; EtOAc, 25° C.-1 day) was “Crystal, no change”, the Slurry solid form ([5]; EtOAc, 25° C.-7 day) was “Crystal, no change” and the Slurry solid form ([5]; EtOAc, 50° C.-1 day) was “Crystal, no change”. The Slurry solid form ([5]; EtOH, 25° C.-1 day) was “Crystal, no change”, the Slurry solid form ([5]; EtOH, 25° C.-7 day) was “Crystal, no change” and the Slurry solid form ([5]; EtOH, 50° C.-1 day) was “Crystal, no change”. For the same molecule, the Slurry solid form ([5]; IPA, 25° C.-1 day) was “Crystal, no change”, the Slurry solid form ([5]; IPA, 25° C.-7 day) was “Crystal, no change” and the Slurry solid form ([5]; MeOH, 25° C.-1 day) was “Crystal, no change”. The Slurry solid form ([5]; MeOH, 25° C.-7 day) was “Crystal, no change”, the Slurry solid form ([5]; MeOH, 50° C.-1 day) was “Clear solution” and the Slurry solid form ([5]; THF, 25° C.-1 day) was “Crystal, no change”. For the same molecule, the Slurry solid form ([5]; THF, 25° C.-7 day) was “Crystal, no change”, the Slurry solid form ([5]; THF, 50° C.-1 day) was “Crystal, no change” and the Slurry solid form ([5]; Water, 25° C.-1 day) was “Crystal, no change”. The Slurry solid form ([5]; Water, 25° C.-7 day) was “Crystal, no change” and the Slurry solid form ([5]; Water, 50° C.-1 day) was “partially crystalline”.
